Assay results reported in US20230067910A1, “NOVEL COMPOUNDS FOR THE DIAGNOSIS, TREATMENT AND PREVENTION OF DISEASES ASSOCIATED WITH THE AGGREGATION OF ALPHA-SYNUCLEIN” (MODAG GMBH, priority 2019, published 2023).
pKd: −log10 of the molar value. Read-outs that look alike come from different tables or passages of the source.

Columns and labels:
[1] = molecular target: T1, aggregated alpha-synuclein (Homo sapiens, UniProt P37840); experiment: Saturation binding assay, protocol 2a, alpha-synuclein fibrils; settings: for pKd: fibril-binding saturation assay, summary statement, read-out: KD values, alpha-synuclein fibrils; for Kd: saturation assay protocol 2a, [3H]-labeled compound, read-out: KD [nM] for aggregated alpha-synuclein; for Selectivity versus Abeta and tau46 fibrils: saturation binding to alpha-synuclein vs Abeta and tau46 fibrils
T1 construct: made in house; host or cells: E. coli
Method: (§1) Alpha-synuclein and tau46 were purified from E. coli according to established protocols (Nuscher B, et al., J. Biol. Chem., 2004; 279(21):21966-75), Aβ1-42 was obtained from rPeptide, Watkinsville, Ga., USA. Fibrils were prepared by aggregation of recombinant protein via constant agitation. In detail, 70 μM of alpha-synuclein mixed with 100 mM NaCl in 50 mM Tris, pH 7.0+0.02% NaN3 were incubated at 1,400 rpm, 37° C. for 96 h. 10 μM of tau46 were incubated with 0.03 mg/ml heparin in 50 mM Tris, pH=7.0 at 1,000 rpm, 37° C. for 72 h. Aβ1-42 was solved in 20 mM NaPi, pH=8.0+0.2 mM EDTA+0.02% NaN3 (Deeg A A, et al., Biochim. Biophys. Acta, 2015; 1850(9): 1884-90; Goedert M, et al. Nature, 1996; 383(6600): 550-3).
Sonicated αSYN (0.04 μM) or tau46 (0.4 μM) or Aβ1-42 (6 μM) fibrils diluted in PBS were incubated with decreasing concentrations of [^3H]-labeled compound (48 nM or 24 nM-[…]) in 50 mM Tris-base, 10% ethanol, 0.05% Tween20, pH 7.4. To determine non-specific binding, the respective unlabeled compound (400 nM) was added to a duplicate set of binding reactions.
Assay plates were incubated under agitation at 37° C. for 2 h, covered by plastic foil (Resealable tape, PerkinElmer, Waltham, Mass., USA). Prior to harvesting, a filter (Printed filtermat B, PerkinElmer, Waltham, Mass., USA) was incubated with 5 mg/mL polyethylenimine (PEI, Poly(ethyleneimine) solution, Sigma Aldrich Chemie GmbH, Taufkirchen, Germany) at 4° C. for 30 min. After incubation, bound and free ligands were separated by vacuum filtration using a harvester (Filtermate harvester, PerkinElmer, Waltham, Mass., USA). The filter was washed three times with buffer cooled to 4° C. and subsequently dried in the microwave oven for 2 min at medium power. Melt-on scintillator sheets (MeltiLex™ B/HS, PerkinElmer, Waltham, Mass., USA) were molten into the filter using a heating plate set to 120° C. After solidifying at room temperature, the filter was sealed in a plastic bag (Sample bag for MicroBeta®, PerkinElmer, Waltham, Mass., USA). Accumulation of tritium was counted in a liquid scintillation counter (Wallac MicroBeta® TriLux, 1450 LSC & Luminescence Counter, PerkinElmer, Waltham, Mass., USA) immediately. Radioactivity was plotted against the increasing tritium-labeled compound or cold compound concentrations. Data points were fitted using nonlinear regression analysis in GraphPad Prism (GraphPad Software, Inc., Version 7.03, La Jolla, Calif., USA).
The fibril-binding saturation assay provides KD values. This assay is performed with directly radioactively labeled compounds (e.g. ^3H labeling). The saturation binding assays were performed using as target structures fibrillar aggregates produced from recombinant human alpha-synuclein, Aβ1-42, and tau46, respectively.

[2] = molecular target: T2, aggregated tau46 (Homo sapiens, UniProt P10636); experiment: Saturation binding assay, protocol 2a, tau46 fibrils; settings: saturation assay protocol 2a, [3H]-labeled compound
T2 construct: made in house; host or cells: E. coli
T2 sequence (P10636 1-412 isoform P10636-7): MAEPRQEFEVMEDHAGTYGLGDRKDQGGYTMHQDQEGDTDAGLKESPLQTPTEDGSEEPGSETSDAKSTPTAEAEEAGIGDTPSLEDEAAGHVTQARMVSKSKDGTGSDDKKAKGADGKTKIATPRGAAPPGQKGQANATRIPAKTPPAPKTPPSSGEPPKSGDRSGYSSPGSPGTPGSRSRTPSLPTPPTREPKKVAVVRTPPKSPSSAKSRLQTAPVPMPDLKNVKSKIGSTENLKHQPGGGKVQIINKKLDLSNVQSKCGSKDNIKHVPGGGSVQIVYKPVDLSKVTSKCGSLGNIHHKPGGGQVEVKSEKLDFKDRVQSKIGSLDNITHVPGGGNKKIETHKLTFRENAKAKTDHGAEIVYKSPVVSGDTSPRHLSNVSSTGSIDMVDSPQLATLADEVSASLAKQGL
Method: as §1
(§2) Sonicated αSYN (0.04 μM) or tau46 (0.4 μM) or Aβ1-42 (6 μM) fibrils diluted in PBS were incubated with decreasing concentrations of [^3H]-labeled compound (48 nM or 24 nM-[…]) in 50 mM Tris-base, 10% ethanol, 0.05% Tween20, pH 7.4. […]
(§3) Assay plates were incubated under agitation at 37° C. for 2 h, covered by plastic foil (Resealable tape, PerkinElmer, Waltham, Mass., USA). […] Accumulation of tritium was counted in a liquid scintillation counter (Wallac MicroBeta® TriLux, 1450 LSC & Luminescence Counter, PerkinElmer, Waltham, Mass., USA) immediately. Radioactivity was plotted against the increasing tritium-labeled compound or cold compound concentrations. […]

[3] = molecular target: T3, aggregated Abeta (Homo sapiens, UniProt P05067); experiment: Saturation binding assay, protocol 2a, Abeta fibrils; settings: saturation assay protocol 2a, [3H]-labeled compound
T3 construct: Aβ1-42 was obtained from rPeptide; purchased rPeptide, Watkinsville, Ga., USA
T3 sequence (P05067 672-713 limits assumed): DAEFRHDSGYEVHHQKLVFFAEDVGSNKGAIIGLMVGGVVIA
Method: as §1, §2, §3

[4] = test system: H4 cells overexpressing alpha-synuclein hemi-Venus fusion constructs (V1S+SV2); experiment: Cellular model of aggregated alpha-synuclein-dependent toxicity, V1S+SV2 H4 cells; assay type: cell-based; settings: 10 μM compound, 100 μM FeCl3, 0.75% DMSO, 48 h; for inhibition at 10 µM: read-out: Change in fraction of condensed nuclei (rel. to DMSO control) [%]
Method: (§4) To identify potential therapeutically useful effects, compounds were tested in two cellular models of aggregated alpha-synuclein-dependent toxicity in H4 cells. These cellular models allow for the inducible overexpression of alpha-synuclein hemi-Venus fusion constructs (V1S+SV2) or full-length alpha-synuclein (the model is described in detail in: Bartels M, Weckbecker D, Kuhn P H, Ryazanov S, Leonov A, Griesinger C, Lichtenthaler S F, Bötzel K, Giese A: Iron-mediated aggregation and toxicity in a novel neuronal cell culture model with inducible alpha-synuclein expression, Sci. Rep. 2019 Jun. 24; 9(1):9100). Moreover, addition of DMSO and FeCl3 promotes the aggregation of alpha-synuclein which is associated with an increase in cytotoxicity. The cell culture assay uses these effects by determining the change in the number of cells and the change in the percentage of condensed nuclei, which is indicative of apoptosis, in order to obtain information on which compounds show the most promising effects and thus might be therapeutically useful.
(§5) In these experiments, cells were incubated with 100 μM FeCl3 and 0.75% DMSO in the presence of 10 μM anle138c as a positive control, compounds 1 to 19 (10 μM), or DMSO as a negative control. After 48 h, the cells were imaged with an OPERA high-throughput imaging system and analyzed using Acapella software (Perkin Elmer). […] A reduction in the fraction of condensed nuclei (in the absence of a strong reduction in cell number) is indicative of a beneficial therapeutic effect.

[5] = test system: H4 cells overexpressing full-length alpha-synuclein; experiment: Cellular model of aggregated alpha-synuclein-dependent toxicity, full-length alpha-synuclein H4 cells; assay type: cell-based; settings: 10 μM compound, 100 μM FeCl3, 0.75% DMSO, 48 h; for inhibition at 10 µM: read-out: Change in fraction of condensed nuclei (rel. to DMSO control) [%]
Method: as §4, §5

SMILES | pKd [1] | Kd [1] [nM] | Selectivity versus Abeta and tau46 fibrils [1] | Kd [2] [nM] | Kd [3] [nM] | Change in cell number (rel. to DMSO control) [%] [4] [%] | inhibition at 10 µM [4] [%] | Change in cell number (rel. to DMSO control) [%] [5] [%] | inhibition at 10 µM [5] [%]
CN(C)c1ccc(-c2cc(-c3ccnc(Br)c3)[nH]n2)cc1 [Compound 1, 4-[3-(4-dimethylamino-phenyl)-1H-pyrazol-5-yl]-2-bromopyridine] | > 8.00 | < 2 | good to excellent selectivity | > 5 | > 100 | −21.2 | 11.7 | −27.3 | 65.4
Fc1cc(-c2cc(-c3ccc4c(c3)OCO4)n[nH]2)ccn1 [Compound 12, 4-[3-(1,3-benzodioxol-5-yl)-1H-pyrazol-5-yl]-2-fluoropyridine] | > 8.00 | 7 | – | – | – | −22.2 | -24.9 | −9.8 | -28.4
CNc1ccc(-c2cc(-c3ccnc(Br)c3)[nH]n2)cc1 [Compound 2, 4-[5-(2-bromopyridin-4-yl)-1H-pyrazol-3-yl]-N-methylaniline] | > 8.00 | < 1 | good to excellent selectivity | > 15 | > 100 | −25.8 | 49.4 | −44.2 | 79
